Assay type in all cases: cell-based
Experiment [1] has as its target T1, TYK2 Pseudokinase (JH2) (Homo sapiens, UniProt P29597). The experiment can be described thus: HEK-Blue IFNα/β reporter assay (SEAP) for profiling TYK2 pseudokinase (JH2) inhibition. The following applies: HEK-Blue IFNα/β cells, 1 ng/mL human recombinant IFNα, read-out: IFNα (TYK2 inhibitory activity, IC50). As to the method: (§1) Example B-1: HEK-Blue™ IL-23 and IFNα/β Reporter Assays for Profiling TYK2 Pseudokinase (JH2) Inhibition
(§2) HEK-Blue™ IL-23 and IFNα/β cells with a stably-integrated cytokine receptor and STAT3 or STAT1 express STAT-inducible secreted embryonic alkaline phosphatase (SEAP) reporter gene upon cytokine stimulation. These cells are plated in DMEM (Gibco) containing 10% heat-inactivated FBS (Gibco) and 100 U/mL PenStrep (Gibco) at 37° C. under 5% CO2 conditions for 20-22 hours. The cells are then pretreated with serially diluted test compounds for 60 min prior to stimulation with either 10 ng/mL human recombinant IL-23 (Miltenyl Biotech) or 1 ng/mL human recombinant IFNα (InvivoGen) for 22-24 hours for IL-23 or 16-18 h for IFNα. SEAP induction is measured using the QUANTI Blue™ Solution (InvivoGen) according to the manufacturer's instructions.

Experiment [2] addresses T1, TYK2 Pseudokinase (JH2). As to the kind of experiment: HEK-Blue IL-23 reporter assay (SEAP) for profiling TYK2 pseudokinase (JH2) inhibition. Also on record: HEK-Blue™ IL-23 and IFNα/β cells with a stably-integrated cytokine receptor and STAT3 or STAT1; endogenous in cells; host or cells: HEK-Blue IL-23 and HEK-Blue IFNα/β cells. The following applies: HEK-Blue IL-23 cells, 10 ng/mL human recombinant IL-23, SEAP reporter; read-out: IL23 (TYK2 inhibitory activity, IC50). As to the method:
as §1, §2

The test system of experiment [3] is HEK-Blue™ IL-2 reporter cells. The experiment can be described thus: HEK-Blue IL-2 reporter assay (SEAP) for determining selectivity. The following applies: HEK-Blue IL-2 cells, 4 ng/mL human recombinant IL-2, SEAP reporter. As to the method: (§3) Example B-3: HEK-Blue™ IL-2 and IFNγ Reporter Assays for Determining Selectivity
(§4) HEK-Blue™ IL-2 and IFNγ reporter cells with a stably-integrated cytokine receptor and STAT5 or STAT1 express STAT-inducible secreted embryonic alkaline phosphatase (SEAP) reporter gene upon cytokine stimulation. These cells were plated in DMEM (Gibco) containing 10% heat-inactivated FBS (Gibco) and 100 U/mL PenStrep (Gibco) at 37° C. under 5% CO2 conditions for 20-22 hours. The cells were then pre-treated with serially diluted test compounds for 60 min prior to stimulation with either 4 ng/mL human recombinant IL-2 (Miltenyl Biotech) or 50 ng/mL human recombinant IFNγ (InvivoGen) for 24 hours. SEAP induction was measured using the QUANTI-Blue™ Solution (InvivoGen) according to the manufacturer's instructions.

In experiment [4] the test system is HEK-Blue™ IFNγ reporter cells. The experiment can be described thus: HEK-Blue IFNγ reporter assay (SEAP) for determining selectivity. The following applies: 50 ng/mL human recombinant IFNγ, read-out: IFN-γ (SEAP selectivity, IC50). As to the method:
as §3, §4

pIC50: −log10 of the molar value.

T1 sequence (P29597 whole entry): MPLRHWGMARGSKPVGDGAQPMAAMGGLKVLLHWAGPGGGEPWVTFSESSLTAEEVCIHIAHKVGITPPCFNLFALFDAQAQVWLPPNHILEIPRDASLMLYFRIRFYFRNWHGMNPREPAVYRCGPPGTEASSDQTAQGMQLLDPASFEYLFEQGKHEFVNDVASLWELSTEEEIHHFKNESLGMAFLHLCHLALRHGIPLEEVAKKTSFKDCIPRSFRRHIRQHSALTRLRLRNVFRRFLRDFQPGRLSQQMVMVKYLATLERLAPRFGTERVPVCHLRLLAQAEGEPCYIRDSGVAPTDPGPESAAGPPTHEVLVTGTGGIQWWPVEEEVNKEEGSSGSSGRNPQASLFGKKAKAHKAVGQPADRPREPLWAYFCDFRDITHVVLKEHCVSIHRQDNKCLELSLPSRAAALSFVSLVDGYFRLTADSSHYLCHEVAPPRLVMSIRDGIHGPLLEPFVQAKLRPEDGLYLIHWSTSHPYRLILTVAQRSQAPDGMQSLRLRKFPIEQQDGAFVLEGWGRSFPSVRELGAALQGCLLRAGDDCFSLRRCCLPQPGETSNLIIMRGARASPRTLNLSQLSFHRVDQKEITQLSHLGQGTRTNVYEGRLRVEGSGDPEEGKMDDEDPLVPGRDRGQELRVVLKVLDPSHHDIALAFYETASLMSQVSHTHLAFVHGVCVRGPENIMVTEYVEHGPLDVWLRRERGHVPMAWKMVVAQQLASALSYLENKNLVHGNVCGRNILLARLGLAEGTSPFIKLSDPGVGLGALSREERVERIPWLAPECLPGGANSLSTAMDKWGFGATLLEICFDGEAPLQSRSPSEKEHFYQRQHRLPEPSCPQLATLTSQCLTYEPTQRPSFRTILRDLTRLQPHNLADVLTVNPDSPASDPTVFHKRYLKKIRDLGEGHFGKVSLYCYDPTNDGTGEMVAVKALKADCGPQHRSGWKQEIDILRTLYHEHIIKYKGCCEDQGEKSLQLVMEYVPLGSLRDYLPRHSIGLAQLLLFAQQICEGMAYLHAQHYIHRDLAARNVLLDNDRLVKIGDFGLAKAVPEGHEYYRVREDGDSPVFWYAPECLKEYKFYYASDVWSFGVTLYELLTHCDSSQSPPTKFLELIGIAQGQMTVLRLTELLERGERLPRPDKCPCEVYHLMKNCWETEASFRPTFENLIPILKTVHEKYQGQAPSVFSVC

Regarding `CNC(=O)c1nnc(Nc2ccc(F)cn2)cc1Nc1cccc2c1OCc1c-2noc1C` [Compound 1, 6-((5-fluoropyridin-2-yl)amino)-N-methyl-4-((3-methyl-4H-chromeno[4,3-c]isoxazol-6-yl)amino)pyridazine-3-carboxamide], the figures for the negative-log IC50 (pIC50) on TYK2 Pseudokinase (JH2) [1] and at TYK2 Pseudokinase (JH2) [2] were under 6.00 and 6.00 to 6.52, respectively.

With `CNC(=O)c1nnc(NC(=O)C2CC2)cc1Nc1cccc2c1OCc1c-2noc1C` [Compound 3, 6-(cyclopropanecarboxamido)-N-methyl-4-((3-methyl-4H-chromeno[4,3-c]isoxazol-6-yl)amino)pyridazine-3-carboxamide], the pIC50 in experiment [3] was under 6.00; in experiment [4], under 6.00; on TYK2 Pseudokinase (JH2) [2], 6.52 to 7.52.

Turning to `CNC(=O)c1nnc(Nc2ccc(F)cn2)cc1Nc1cccc2c1OCc1nnnn1-2` [Compound 4, 4-((4H-benzo[b]tetrazolo[1,5-d][1,4]oxazin-6-yl)amino)-6-((5-fluoropyridin-2-yl)amino)-N-methylpyridazine-3-carboxamide], the pIC50 was under 6.00 at TYK2 Pseudokinase (JH2) [1] and 6.00 to 6.52 on TYK2 Pseudokinase (JH2) [2].

For `CNC(=O)c1nnc(NC(=O)C2CC2)cc1Nc1cccc2c1OCn1nnnc1-2` [Compound 5, 4-((5H-benzo[e]tetrazolo[1,5-c][1,3]oxazin-7-yl)amino)-6-(cyclopropanecarboxamido)-N-methylpyridazine-3-carboxamide], the pIC50 at TYK2 Pseudokinase (JH2) [1] was under 6.00; on TYK2 Pseudokinase (JH2) [2], 6.00 to 6.52.

In the case of `CNC(=O)c1nnc(NC(=O)C2CC2)cc1Nc1cccc2c1OCc1nn(C)c(=O)n1-2` [Compound 6, 6-(cyclopropanecarboxamido)-N-methyl-4-((2-methyl-1-oxo-2,4-dihydro-1H-benzo[b][1,2,4]triazolo[4,3-d][1,4]oxazin-6-yl)amino)pyridazine-3-carboxamide], the pIC50 is under 6.00 on TYK2 Pseudokinase (JH2) [1] and 6.00 to 6.52 at TYK2 Pseudokinase (JH2) [2].

On to `CNC(=O)c1nnc(Nc2ccc(F)cn2)cc1Nc1cccc2c1OCc1nn(C)c(=O)n1-2` [Compound 7, 6-((5-fluoropyridin-2-yl)amino)-N-methyl-4-((2-methyl-1-oxo-2,4-dihydro-1H-benzo[b][1,2,4]triazolo[4,3-d][1,4]oxazin-6-yl)amino)pyridazine-3-carboxamide], for which the negative-log IC50 (pIC50) at TYK2 Pseudokinase (JH2) [1] and at TYK2 Pseudokinase (JH2) [2] was under 6.00 throughout.

`[2H]C([2H])([2H])NC(=O)c1cnc(NC(=O)C2CC2)cc1Nc1cncc2c1N(C)Cc1nn(C)c(=O)n1-2` [Compound 13, 6-(cyclopropanecarboxamido)-4-((2,5-dimethyl-1-oxo-1,2,4,5-tetrahydropyrido[4,3-e][1,2,4]triazolo[4,3-a]pyrazin-6-yl)amino)-N-(methyl-d3)nicotinamide]: the negative-log IC50 (pIC50) on TYK2 Pseudokinase (JH2) [1] and on TYK2 Pseudokinase (JH2) [2] was under 6.00 throughout.

Turning to `[2H]C([2H])([2H])NC(=O)c1nnc(NC(=O)C2COC2)cc1Nc1cccc2c1N(C)Cc1nn(C)c(=O)n1-2` [Compound 19, 4-((2,5-dimethyl-1-oxo-1,2,4,5-tetrahydro-[1,2,4]triazolo[4,3-a]quinoxalin-6-yl)amino)-N-(methyl-d3)-6-(oxetane-3-carboxamido)pyridazine-3-carboxamide], the negative-log IC50 (pIC50) was 6.00 to 6.52 on TYK2 Pseudokinase (JH2) [1] and under 6.00 on TYK2 Pseudokinase (JH2) [2].

Turning to `[2H]C([2H])([2H])NC(=O)c1cnc(NC(=O)C2CC2)cc1Nc1nccc2c1N(C)Cc1nn(C)c(=O)n1-2` [Compound 21, 6-(cyclopropanecarboxamido)-4-((2,5-dimethyl-1-oxo-1,2,4,5-tetrahydropyrido[3,4-e][1,2,4]triazolo[4,3-a]pyrazin-6-yl)amino)-N-(methyl-d3)nicotinamide], the pIC50 was 6.52 to 7.52 at TYK2 Pseudokinase (JH2) [1], under 6.00 in experiment [3], 6.00 to 6.52 in experiment [4] and over 7.52 on TYK2 Pseudokinase (JH2) [2].

Regarding `[2H]C([2H])([2H])NC(=O)c1nnc(NC(=O)C2CC2)cc1Nc1cccc2c1N(C)Cc1nc(C)oc1-2` [Compound 22, 6-(cyclopropanecarboxamido)-4-((2,5-dimethyl-4,5-dihydrooxazolo[4,5-c]quinolin-6-yl)amino)-N-(methyl-d3)pyridazine-3-carboxamide], the results for the pIC50 (in experiment [3]; at TYK2 Pseudokinase (JH2) [2]) were 6.00 to 6.52 and over 7.52, respectively.

For `[2H]C([2H])([2H])NC(=O)c1cnc(NC(=O)C2CC2)cc1Nc1cccc2c1N(C)Cc1nc(C)oc1-2` [Compound 23, 6-(cyclopropanecarboxamido)-4-((2,5-dimethyl-4,5-dihydrooxazolo[4,5-c]quinolin-6-yl)amino)-N-(methyl-d3)nicotinamide], the pIC50 on TYK2 Pseudokinase (JH2) [1] was 6.52 to 7.52; in experiment [3] it was under 6.00; in experiment [4], 6.52 to 7.52; on TYK2 Pseudokinase (JH2) [2], over 7.52.

For `[2H]C([2H])([2H])NC(=O)c1nnc(NC(=O)C2CC2)cc1Nc1cccc2c1N(C)Cc1sc(C)nc1-2` [Compound 35, 6-(cyclopropanecarboxamido)-4-((2,5-dimethyl-4,5-dihydrothiazolo[5,4-c]quinolin-6-yl)amino)-N-(methyl-d3)pyridazine-3-carboxamide], the pIC50 on TYK2 Pseudokinase (JH2) [1] was over 7.52; in experiment [3], under 6.00; on TYK2 Pseudokinase (JH2) [2], over 7.52.

As to `[2H]C([2H])([2H])NC(=O)c1nnc(NC(=O)C2CC2)cc1Nc1nccc2c1N(C)Cc1sc(C)nc1-2` [Compound 36, 6-(cyclopropanecarboxamido)-4-((2,5-dimethyl-4,5-dihydrothiazolo[5,4-c][1,7]naphthyridin-6-yl)amino)-N-(methyl-d3)pyridazine-3-carboxamide], the pIC50 at TYK2 Pseudokinase (JH2) [1] was over 7.52; in experiment [3] it was 6.00 to 6.52; in experiment [4] it was 6.52 to 7.52; at TYK2 Pseudokinase (JH2) [2], over 7.52.

Consider `[2H]C([2H])([2H])NC(=O)c1nnc(NC(=O)C2CC2)cc1Nc1cccc2c1N(C)CC1CCC(=O)N21` (centres unmarked) [Compound 37, 6-(cyclopropanecarboxamido)-N-(methyl-d3)-4-((5-methyl-1-oxo-1,2,3,3a,4,5-hexahydropyrrolo[1,2-a]quinoxalin-6-yl)amino)pyridazine-3-carboxamide], for which the pIC50 was 6.52 to 7.52 on TYK2 Pseudokinase (JH2) [1], under 6.00 in experiment [3], 6.00 to 6.52 in experiment [4] and over 7.52 at TYK2 Pseudokinase (JH2) [2].

On to `[2H]C([2H])([2H])NC(=O)c1nnc(NC(=O)C2CC2)cc1Nc1cccc2c1N(C)C[C@H]1CCC(=O)N21` [Compound 38, (R)-6-(cyclopropanecarboxamido)-N-(methyl-d3)-4-((5-methyl-1-oxo-1,2,3,3a,4,5-hexahydropyrrolo[1,2-a]quinoxalin-6-yl)amino)pyridazine-3-carboxamide], for which the negative-log IC50 (pIC50) on TYK2 Pseudokinase (JH2) [1] was 6.52 to 7.52; in experiment [3], 6.00 to 6.52; in experiment [4] it was 6.52 to 7.52; on TYK2 Pseudokinase (JH2) [2], over 7.52.

As for `[2H]C([2H])([2H])NC(=O)c1nnc(NC(=O)C2CC2)cc1Nc1cccc2c1N(C)C[C@@H]1CCC(=O)N21` [Compound 39, (S)-6-(cyclopropanecarboxamido)-N-(methyl-d3)-4-((5-methyl-1-oxo-1,2,3,3a,4,5-hexahydropyrrolo[1,2-a]quinoxalin-6-yl)amino)pyridazine-3-carboxamide], the negative logarithm of the IC50 (pIC50) was 6.00 to 6.52 at TYK2 Pseudokinase (JH2) [1] and 6.52 to 7.52 on TYK2 Pseudokinase (JH2) [2].
